The term solubility (thermodynamic) denotes solubility found after equilibrating the solid with the medium.

The values below come from patent US20130149383A1, “SUSTAINED RELEASE PARTICLE FORMULATIONS OF GUAIFENESIN” (priority 2011, published 2013).

≈ marks a conversion by molar mass, not a printed value.

For data set [1] the following is noted: cited from earlier work.
Data set [2] in a line: Equilibrium solubility determination in liquid vehicle (HPLC). The data set is classed as physicochemical. Conditions: 40 °C, thermodynamic from solid; guaifenesin in liquid vehicle, 40° for two days, n=3. Here is the method: The objective of this example was to determine the […] using “HPLC protocol”. About 500 mg of guaifenesin was added into 20 ml of a liquid vehicle. The suspend solution were then shaken and then placed at 40° for two days. The supernatant was then filtered off using a syringe with a 0.45 μm filter, and diluted so that the absorbencies fell within the UV (25-fold dilution). The diluted clear solutions were equilibrium solubility samples, termed as “samples” in the “HPLC protocol’. The “HPLC protocol” was then followed (See below).
A 20 mL of stock solution of the drug was prepared in DI water at a concentration of 1 mg/mL. The solution was left at room temperature for 5 min to get the drug dissolved. The stock solution was appropriately diluted to get several concentrations ranging from 0.1 mg/mL to 1 mg/mL (See FIG. 1). Samples were prepared by appropriately diluting the samples collected using “USP dissolution protocol” to ensure that the drug concentration level falls within the range of the standard curve (e.g., 2× dilution).
HPLC was prepared by first washing the column with the wash buffer (acetonitrile:water 50:50 (v/v)) for 10 min. […]

With `COc1ccccc1OCC(O)CO` (centres unmarked) [Guaifenesin, 3-(2-methoxyphenoxy)-1,2-propanediol], the water solubility result in data set [1] is given as “highly water soluble”. The thermodynamic solubility at 2 days in data set [2] turned out to be 9590 ± 340 µg/mL (≈ 48.4 mM).
